A short description of data set [1]: Elimination half life in Sprague-Dawley rat at 10 mg/kg, iv by LC-MS/MS analysis. The class given is ADME, organism-based. The settings on record: in vivo, read-out: beta t1/2.
A short description of data set [2]: Elimination half life in Sprague-Dawley rat at 500 mg/kg, po by LC-MS/MS analysis. The class given is ADME, organism-based. The settings on record: in vivo, read-out: beta t1/2.

Experimental findings from ChEMBL document CHEMBL4190354, “A Realistic View on "The Essential Medicinal Chemistry of Curcumin"” (ACS Med Chem Lett, 2017) are described below.

As for `COc1cc(/C=C/C(=O)CC(=O)/C=C/c2ccc(O)c(OC)c2)ccc1O` [CURCUMIN], the figures for the half-life in data set [1] and in data set [2] were 28.1 min and 44.5 min, respectively.
